In US20250122160A1, “PROTEIN TYROSINE PHOSPHATASE INHIBITORS AND METHODS OF USE THEREOF” (Calico Life Sciences LLC, priority 0001, published 2025) one finds IC50 data, which are given here for 30 compounds.

Experiment [1] concerns the target T1, His tagged PTPN2 (TC45) protein (Homo sapiens, UniProt P17706).
T1 construct: made in house
T1 sequence (P17706 with tags, fused parts or gaps isoform P17706-2): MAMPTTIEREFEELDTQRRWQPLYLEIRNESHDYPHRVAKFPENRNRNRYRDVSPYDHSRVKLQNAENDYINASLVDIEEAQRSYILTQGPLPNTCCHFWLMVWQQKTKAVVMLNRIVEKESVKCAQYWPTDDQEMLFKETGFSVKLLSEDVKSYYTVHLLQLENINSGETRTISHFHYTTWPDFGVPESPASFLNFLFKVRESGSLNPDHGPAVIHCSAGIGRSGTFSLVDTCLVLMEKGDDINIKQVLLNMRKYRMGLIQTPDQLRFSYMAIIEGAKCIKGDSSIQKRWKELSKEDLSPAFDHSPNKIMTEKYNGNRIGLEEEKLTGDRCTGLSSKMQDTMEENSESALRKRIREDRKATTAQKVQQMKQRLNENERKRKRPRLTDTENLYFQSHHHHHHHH
Description: Mobility shift assay (MSA) to determine potency of PTPN2 inhibitors. In kind it is biochemical. The conditions noted are these: 0.5 nM enzyme, 2 μM substrate. The method, boiled down: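 His-tagged human PTPN2 (TC45), 0.5 nM, preincubated 10 min at room temperature with compound (12-point, 1:3 dilutions) in HEPES pH 7.5 buffer with EGTA, EDTA, Tween 20 and DTT. Then 2 μM OG488-labelled phospho-insulin-receptor peptide was added for 10 min and quenched. % conversion was read by mobility shift, and IC50 came from % inhibition.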

In experiment [2] the target is T2, His tagged full-length PTPN1 protein (Homo sapiens, UniProt P18031).
T2 construct: made in house
T2 sequence (P18031 with tags, fused parts or gaps): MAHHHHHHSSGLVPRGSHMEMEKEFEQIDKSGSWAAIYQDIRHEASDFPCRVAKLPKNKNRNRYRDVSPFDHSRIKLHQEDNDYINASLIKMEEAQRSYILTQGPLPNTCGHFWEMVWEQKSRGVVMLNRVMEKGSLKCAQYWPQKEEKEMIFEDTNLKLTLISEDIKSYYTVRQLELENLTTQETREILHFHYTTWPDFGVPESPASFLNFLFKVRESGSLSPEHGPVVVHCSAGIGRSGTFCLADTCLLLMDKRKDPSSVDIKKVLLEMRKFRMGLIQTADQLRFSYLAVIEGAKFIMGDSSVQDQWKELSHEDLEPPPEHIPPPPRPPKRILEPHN
Description: Mobility shift assay (MSA) to determine potency of PTPN1 inhibitors. The conditions noted are these: 0.5 nM enzyme, 2 μM substrate. In kind it is biochemical. In short, it runs like this: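 His-tagged full-length human PTPN1 (0.5 nM) preincubated with compound 10 min at room temperature in pH 7.5 HEPES buffer with EGTA, EDTA, Tween 20 and DTT. Dephosphorylation of 2 μM fluorescent phospho-insulin-receptor peptide over 10 min measured by mobility shift. IC50 from % inhibition across a 12-point, 1:3 dilution series.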

Bounds are passed on as bounds.

As for `Cc1nn(CC(F)F)c(C)c1CCN1Cc2c(cc(O)c(N3CC(=O)NS3(=O)=O)c2F)C(F)(F)C1` [Compound 226], the IC50 in experiment [1] and in experiment [2] was 10 to 100 nM throughout.
Turning to `Cc1nn(CC(F)F)c(C)c1CCN1CCc2cc(O)c(N3CC(=O)NS3(=O)=O)c(F)c2C1` [Compound 253], the IC50 in experiment [1] and in experiment [2] was 1 to 10 nM each time.
Regarding `CC(C)CCN[C@H]1Cc2c(cc(O)c(N3CC(=O)NS3(=O)=O)c2F)C[C@@H]1O` [Compound 411, 5-{(6S,7S)-1-fluoro-3,6-dihydroxy-7-[(3-methylbutyl)amino]-5,6,7,8-tetrahydronaphthalen-2-yl}-1λ^6,2,5-thiadiazolidine-1,1,3-trione], the IC50 (usually the concentration that gives 50% inhibition) in experiment [1] was below 1 nM; in experiment [2], 1 to 10 nM.
On to `COCCNC(=O)N1CCc2cc(O)c(N3CC(=O)NS3(=O)=O)c(F)c2C1` [Compound 282], for which the IC50 in experiment [1] and in experiment [2] was 10 to 100 nM throughout.
`O=C1CN(c2c(O)cc3c(c2F)CC(CNCC2CC2)CC3)S(=O)(=O)N1` (stereo not drawn) [Compound 399, 5-(7-{[(cyclopropylmethyl)amino]methyl}-1-fluoro-3-hydroxy-5,6,7,8-tetrahydronaphthalen-2-yl)-1λ^6,2,5-thiadiazolidine-1,1,3-trione]: the IC50 in experiment [1] and in experiment [2] was 10 to 100 nM throughout.
In the case of `O=C1CN(c2c(O)cc3c(c2F)CN(C(=O)NCCc2ccccc2)CC3)S(=O)(=O)N1` [Compound 284], the IC50 in experiment [1] and in experiment [2] was 10 to 100 nM throughout.
`O=C1CN(c2c(O)cc3c(c2F)C[C@H](NCC2(CF)CC2)CO3)S(=O)(=O)N1` [Compound 381, 5-[(3S)-5-fluoro-3-({[1-(fluoromethyl)cyclopropyl]methyl}amino)-7-hydroxy-3,4-dihydro-2H-1-benzopyran-6-yl]-1λ^6,2,5-thiadiazolidine-1,1,3-trione]: the figures for the IC50 in experiment [1] and in experiment [2] were 10 to 100 nM and above 100 nM, respectively.
Consider `CC(C)(C)OC(=O)N1CCc2cc(O)c(N3CC(=O)NS3(=O)=O)c(F)c2C1` [Compound 221], for which the IC50 in experiment [1] lay within 10 to 100 nM; in experiment [2], 1 to 10 nM.
In the case of `Cc1cc(CN[C@@H]2CCc3cc(O)c(N4CC(=O)NS4(=O)=O)c(F)c3C2)no1` [Compound 351, 5-[(7R)-1-fluoro-3-hydroxy-7-{[(5-methyl-1,2-oxazol-3-yl)methyl]amino}-5,6,7,8-tetrahydronaphthalen-2-yl]-1λ^6,2,5-thiadiazolidine-1,1,3-trione], the IC50 in experiment [1] and in experiment [2] was 10 to 100 nM in each case.
Consider `O=C1CN(c2c(O)cc3c(c2F)C[C@H](NCC2CCC(C(F)(F)F)CC2)CO3)S(=O)(=O)N1` (stereo partly drawn) [Compound 380, 5-[(3S)-5-fluoro-7-hydroxy-3-({[4-(trifluoromethyl)cyclohexyl]methyl}amino)-3,4-dihydro-2H-1-benzopyran-6-yl]-1λ^6,2,5-thiadiazolidine-1,1,3-trione], for which the IC50 in experiment [1] and in experiment [2] was 10 to 100 nM each time.
`O=C1CN(c2c(O)cc3c(c2F)C[C@H](NCC2CCCOC2)CC3)S(=O)(=O)N1` (stereo partly drawn) [Compound 352, 5-[(7R)-1-fluoro-3-hydroxy-7-{[(oxan-3-yl)methyl]amino}-5,6,7,8-tetrahydronaphthalen-2-yl]-1λ^6,2,5-thiadiazolidine-1,1,3-trione]: the IC50 in experiment [1] and in experiment [2] was 1 to 10 nM throughout.
As for `O=C1CC[C@@H](CN2CCc3cc(O)c(N4CC(=O)NS4(=O)=O)c(F)c3C2)N1` [Compound 324], the IC50 in experiment [1] was in the range of 1 to 10 nM; in experiment [2], 10 to 100 nM.
Taken in the same sequence, the figures for `O=C1CN(c2c(O)cc3c(c2F)CN(CCCc2ccccc2F)CC3)S(=O)(=O)N1` [Compound 303] were 1 to 10 nM and 10 to 100 nM.
`O=C1CN(c2c(O)cc3c(c2F)CN(CCCc2ccc(F)cc2)CC3)S(=O)(=O)N1` [Compound 299]: the IC50 in experiment [1] was in the range of 1 to 10 nM; in experiment [2], 10 to 100 nM.
For the compound `O=C1CN(c2c(O)cc3c(c2F)C[C@H](NCc2cccnn2)CC3)S(=O)(=O)N1` [Compound 349, 5-[(7R)-1-fluoro-3-hydroxy-7-{[(pyridazin-3-yl)methyl]amino}-5,6,7,8-tetrahydronaphthalen-2-yl]-1λ^6,2,5-thiadiazolidine-1,1,3-trione], the IC50 in experiment [1] and in experiment [2] was 10 to 100 nM throughout.
With `CCCCN[C@@H]1CCc2cc(O)c(N3CC(=O)NS3(=O)=O)c(F)c2C1` [Compound 410, 5-[(7R)-7-(butylamino)-1-fluoro-3-hydroxy-5,6,7,8-tetrahydronaphthalen-2-yl]-1λ^6,2,5-thiadiazolidine-1,1,3-trione], the IC50 in experiment [1] and in experiment [2] was 1 to 10 nM in each case.
Regarding `O=C1CN(c2c(O)cc3c(c2F)C[C@H](NCCCc2ccccc2)CO3)S(=O)(=O)N1` [Compound 386, 5-{(3S)-5-fluoro-7-hydroxy-3-[(3-phenylpropyl)amino]-3,4-dihydro-2H-1-benzopyran-6-yl}-1λ^6,2,5-thiadiazolidine-1,1,3-trione], the concentration for half-maximal inhibition (IC50) in experiment [1] and in experiment [2] was 10 to 100 nM in each case.
As for `CC(=O)NC1CCc2cc(O)c(N3CC(=O)NS3(=O)=O)c(F)c2C1` (stereo not drawn) [Compound 322], the IC50 in experiment [1] and in experiment [2] was 10 to 100 nM each time.
Consider `CCC(CC)CCN[C@@H]1CCc2cc(O)c(N3CC(=O)NS3(=O)=O)c(F)c2C1` [Compound 204], for which the IC50 in experiment [1] was below 1 nM; in experiment [2] it was 1 to 10 nM.
As for `CC(C)(C)OC(=O)N[C@@H]1CCc2cc(O)c(N3CC(=O)NS3(=O)=O)c(F)c2C1` [Compound 341, tert-butyl [(2R)-8-fluoro-6-hydroxy-7-(1,1,4-trioxo-1λ^6,2,5-thiadiazolidin-2-yl)-1,2,3,4-tetrahydronaphthalen-2-yl]carbamate], the IC50 in experiment [1] and in experiment [2] was 10 to 100 nM each time.
In the case of `O=C1CN(c2c(O)cc3c(c2F)C[C@H](NCCC2CCOC2)CC3)S(=O)(=O)N1` (stereo partly drawn) [Compound 356, 5-[(7R)-1-fluoro-3-hydroxy-7-{[2-(oxolan-3-yl)ethyl]amino}-5,6,7,8-tetrahydronaphthalen-2-yl]-1λ^6,2,5-thiadiazolidine-1,1,3-trione], the IC50 is below 1 nM in experiment [1] and 1 to 10 nM in experiment [2].
For the compound `C[C@H]1C[C@@H](N)Cc2c1cc(O)c(N1CC(=O)NS1(=O)=O)c2F` [Compound 398, 5-[(5S,7R)-7-amino-1-fluoro-3-hydroxy-5-methyl-5,6,7,8-tetrahydronaphthalen-2-yl]-1λ^6,2,5-thiadiazolidine-1,1,3-trione], the IC50 in experiment [1] and in experiment [2] was 10 to 100 nM throughout.
As to `O=C1CN(c2c(O)cc3c(c2F)CN(CC2CC4(CC4)C2)CC3)S(=O)(=O)N1` [Compound 168], the IC50 in experiment [1] and in experiment [2] was 10 to 100 nM throughout.
`NCC1(O)CCc2cc(O)c(N3CC(=O)NS3(=O)=O)c(F)c2C1` (stereo not drawn) [Compound 337, 5-[7-(aminomethyl)-1-fluoro-3,7-dihydroxy-5,6,7,8-tetrahydronaphthalen-2-yl]-1λ^6,2,5-thiadiazolidine-1,1,3-trione]: the IC50 in experiment [1] and in experiment [2] was 10 to 100 nM each time.
On to `Cc1nn(C)c(C)c1CN1CC(N2CCc3cc(O)c(N4CC(=O)NS4(=O)=O)c(F)c3C2)C1` [Compound 224], for which the IC50 in experiment [1] was above 100 nM; in experiment [2], 10 to 100 nM.
With `NC[C@@H]1CCc2cc(O)c(N3CC(=O)NS3(=O)=O)c(F)c2C1` [Compound 405, 5-[(7R)-7-(aminomethyl)-1-fluoro-3-hydroxy-5,6,7,8-tetrahydronaphthalen-2-yl]-1λ^6,2,5-thiadiazolidine-1,1,3-trione], the 50% inhibitory concentration (IC50) in experiment [1] and in experiment [2] was 10 to 100 nM throughout.
With `O=C1CN(c2c(O)cc3c(c2F)CN(Cc2ccccn2)CC3)S(=O)(=O)N1` [Compound 184], the IC50 in experiment [1] and in experiment [2] was above 100 nM throughout.
Take `CC(C)C(F)CNC1CCc2cc(O)c(N3CC(=O)NS3(=O)=O)c(F)c2C1` (stereo not drawn) [Compound 334, 5-{1-fluoro-7-[(2-fluoro-3-methylbutyl)amino]-3-hydroxy-5,6,7,8-tetrahydronaphthalen-2-yl}-1λ^6,2,5-thiadiazolidine-1,1,3-trione]: the IC50 in experiment [1] and in experiment [2] was 1 to 10 nM throughout.
Consider `Cc1c(CNC(=O)N2CCc3cc(O)c(N4CC(=O)NS4(=O)=O)c(F)c3C2)cnn1C` [Compound 271], for which the IC50 in experiment [1] and in experiment [2] was 10 to 100 nM in each case.
Regarding `CC(C)CCNCC1CCc2cc(O)c(N3CC(=O)NS3(=O)=O)c(F)c2C1` (stereo not drawn) [Compound 390, 5-(1-fluoro-3-hydroxy-7-{[(3-methylbutyl)amino]methyl}-5,6,7,8-tetrahydronaphthalen-2-yl)-1λ^6,2,5-thiadiazolidine-1,1,3-trione], the IC50 in experiment [1] and in experiment [2] was 10 to 100 nM each time.
